According to patent publication US20040067932A1 (priority 2002, published 2004):
≈ marks a conversion by molar mass, not a printed value. Where two headings read alike, the source gives them in different places.

Tests used:
A375 melanoma cells = experiment: Colony formation assay of A375 cells; assay type: cell-based, human; settings: paclitaxel 0.75 ng/ml alone, 7 days
Procedure: FIG. 2 illustrates colony formation assay of A375 cells. Cells were treated with different drugs and colonies were counted after 7 days. The values represent the mean ±SEM of four independent experiments. D=DMSO (control); T=paclitaxel, 0.75 ng/ml; M=MRE 3008F20, 10 μM; C=CI-IB-MECA, 10 μM; TM=paclitaxel plus MRE 3008F20; TC=paclitaxel plus CI-IB-MECA treated cells. *P<0.01 TM versus T. Analysis was by ANOVA followed by Dunnett's test.;
Control plates received the same volume of DMSO alone. After 7 days of growth at 37° C. in humidified atmosphere containing 5% CO2, the cells were fixed with absolute methanol for 5′ and stained with 1/10 Giemsa/phosphate-buffered saline (PBS) staining solution for 10 minutes. Staining solution was removed and colonies of greater than 30 cells were scored as survivors. For each treatment, six individual wells were scored.
Colony formation assay experiments were performed on A375 melanoma cells treated with increasing concentration of paclitaxel (0.25-75 ng/ml). A3 stimulation is achieved with the selective agonist CI-IB-MECA while A3 blockade is obtained with the selective antagonist MRE 3008F20. […] (FIG. 2)

Jurkat cells = experiment: Flow cytometry (PI) G2/M accumulation and sub-G1 apoptosis, Jurkat; assay type: cell-based, human; settings: DMSO (no antagonist); for EC50: Homo sapiens
Procedure: (§1) A375 and NCTC2544 adherent cells were trypsinized, mixed with floating cells, washed with PBS and permeabilised in 70% (vol/vol) ethanol/PBS solution at 4° C. for at least 24 hours. Jurkat, HeL023 and PBMC cells were centrifuged for 10 minutes at 1000×g. The cell pellet was then resuspended and permeabilised in 70% (vol/vol) ethanol/PBS solution at 4° C. for at least 24 hours. The cells were washed with PBS and the DNA was stained with a PBS solution, containing 20 μg/ml of propidium iodide and 100 μg/ml of RNAse, at room temperature for 30 minutes. Cells were analysed by FACScan (Becton-Dickinson) and the content of DNA was evaluated by the Cell-LISYS program (Becton-Dickinson). Cell distribution among cell cycle phases and apoptotic cells was evaluated as previously described (Secchiero et al., 2001). Briefly, the cell cycle distribution is shown as the percentage of cells containing 2n (G1 phase), 4n (G2 and M phases), 4n>x>2n. DNA amount (S phase) judged by propidium iodide staining. The apoptotic population is the percentage of cells with DNA content lower than 2n.
(§2) To verify the role of A3 receptor antagonists on paclitaxel and vindesine mediated alteration of cell proliferation and apoptosis, testing was performed with additional cell lines. […] Experimental conditions are similar to those for the A375 cell testing.

[1] = test system: human melanoma A375 cell line; experiment: MTT growth inhibitory assay, A375; assay type: cell-based; settings: for IC50: Homo sapiens
Procedure: (§3) One of the growth inhibitory assays is the MTT assay. Cells (1000-1500 cells/well) are seeded in a 96-well micro culture plate in a total volume of 100 μl/well. After overnight incubation in a humidified incubator at 37° C. with 5% CO2-95% air, chemotherapeutic drug solutions diluted with culture medium at various concentrations are added in the amount of 100 μl to each well. The plates are placed in a humidified incubator at 37° C. with 5% CO2-95% air for 7-10 days. The plates are then centrifuged briefly and 100 μl of the growth medium is removed. Cell cultures are incubated with 50 μl of MTT [3-(4,5-dimethylthiazol-2-yl)-2,5-diphenyl-tetrazolium bromide] reagent (1 mg/ml in Dulbecco's phosphate-buffered saline) for 4 hr at 37° C. The resultant purple formazan precipitate is solubilized with 200 μl of 0.04 N HCl in isopropanol. Absorbance is measured at a wavelength of 595 nm and at a reference wavelength of 655 nm using a Bio-Rad Model 3550 Microplate Reader. Preferably, all tests are run in duplicate for each dose level.
(§4) The EZED50 computer program estimates the concentration of agent that inhibits cell growth by 50% as compared to the control cells. This is termed the IC50 and is determined by curve fitting test data using the following four logistic equation. [formula]
(§5) Inhibitory assay testing is also used to determine enhanced therapeutic effects from combining A3 receptor antagonists with other tumor inhibiting agents. The inhibitory cell growth assays are run with and without selected concentrations of A3 receptor antagonists. An enhanced therapeutic effect is present when the IC50 of the tumor inhibiting agent is lower with the A3 receptor antagonist.
(§6) Quantitatively, the enhancement factor (EF) is calculated by dividing the IC50 value of the tumor inhibiting agent for a tumor cell line by the IC50 value of the agent with A3 receptor antagonist for the same cell line: [formula]

[2] = test system: human pancreatic cancer Panc-1; experiment: MTT growth inhibitory assay, Panc-1; assay type: cell-based
Procedure: as §3, §4, §5, §6

HeL023 cells = experiment: Flow cytometry (PI) G2/M accumulation and sub-G1 apoptosis, HeL023; assay type: cell-based, human; settings: DMSO (no antagonist); for EC50: Homo sapiens
Procedure: as §1, §2

[3] = test system: human lung carcinoma SKMES; experiment: MTT growth inhibitory assay, SKMES; assay type: cell-based
Procedure: as §3, §4, §5, §6

PBMC blasts = experiment: Flow cytometry (PI) G2/M accumulation, PBMC blasts; assay type: cell-based; settings: Homo sapiens, DMSO (no antagonist)
Procedure: Cells are passaged two or three times weekly at a ratio between 1:5 and 1:10. Lymphocytes were isolated from buffy coats kindly provided by the Blood Bank of the University Hospital of Ferrara. Blood donated by healthy volunteers, after informed consent for research was obtained. Lymphocytes were isolated by density gradient centrifugation (Ficoll/Histopaque 1.077 g/ml). The cells are stimulated with purified phytohemoagglutinin (1 μg/ml) and expanded in RPMI medium added of interleukin 2 (20 Units/ml) and 10% fetal calf serum.
Jurkat, HeL023 and PBMC cells were centrifuged for 10 minutes at 1000×g. The cell pellet was then resuspended and permeabilised in 70% (vol/vol) ethanol/PBS solution at 4° C. for at least 24 hours. The cells were washed with PBS and the DNA was stained with a PBS solution, containing 20 μg/ml of propidium iodide and 100 μg/ml of RNAse, at room temperature for 30 minutes. Cells were analysed by FACScan (Becton-Dickinson) and the content of DNA was evaluated by the Cell-LISYS program (Becton-Dickinson). Cell distribution among cell cycle phases and apoptotic cells was evaluated as previously described (Secchiero et al., 2001). Briefly, the cell cycle distribution is shown as the percentage of cells containing 2n (G1 phase), 4n (G2 and M phases), 4n>x>2n. DNA amount (S phase) judged by propidium iodide staining. […]

[4] = test system: human colon carcinoma HT29 cell line; experiment: MTT growth inhibitory assay, HT29; assay type: cell-based; settings: HT-29
Procedure: as §3, §4, §5, §6

NCTC2544 cells = experiment: Flow cytometry (PI) G2/M accumulation and sub-G1 apoptosis, NCTC2544; assay type: cell-based, human; settings: NCTC 2544, DMSO (no antagonist); for EC50: Homo sapiens
Procedure: as §1, §2

A375 cells = experiment: Flow cytometry (PI) G2/M accumulation and sub-G1 apoptosis, A375; assay type: cell-based, human; settings: for EC50: Homo sapiens, A-375, 24 h
Procedure: as §1
Cell proliferation and apoptosis are quantified by flow cytometer analysis after propidium-iodide (PI) DNA staining.

[5] = read-out: paclitaxel EC50 (G2/M accumulation)
[6] = read-out: vindesine EC50 (G2/M accumulation)

CC(=O)O[C@H]1C(=O)[C@@]2(C)[C@H]([C@H](OC(=O)c3ccccc3)[C@]3(O)C[C@H](OC(=O)[C@H](O)[C@@H](NC(=O)c4ccccc4)c4ccccc4)C(C)=C1C3(C)C)[C@]1(OC(C)=O)CO[C@@H]1C[C@@H]2O [paclitaxel]
colony formation, % of the control (A375 melanoma cells): 64% | paclitaxel ECMAX (sub-G1) (Jurkat cells): 3.32 ± 0.52 ng/mL | EC50 (Jurkat cells; [5]): 2.96 ± 0.31 ng/mL | IC50 of paclitaxel, A3 antagonist none ([1]; A375, paclitaxel 0.0001-0.05 μg/ml, alone (control of each antagonist series)): 4.2 ng/mL | IC50 ([1]; A-375, A375, paclitaxel 0.0001-0.05 μg/ml, alone (control of each antagonist series), read-out: IC50 of paclitaxel, A3 antagonist none): 4.4 ng/mL (≈ 5.15 nM) | IC50 ([1]; A-375, A375, paclitaxel 0.0002-0.1 μg/ml, alone, read-out: IC50 of paclitaxel, A3 antagonist none): 4.6 ng/mL (≈ 5.39 nM) | IC50 ([1]; A-375, Human Melanoma A375, read-out: IC50 growth inhibition, agent used separately): 4 ± 0.2 ng/mL (≈ 4.68 nM) | IC50 ([2]; Homo sapiens, Panc-1, paclitaxel 0.0001-0.05 μg/ml, alone, read-out: IC50 of paclitaxel, A3 antagonist none): 2.9 ng/mL (≈ 3.4 nM) | IC50 ([2]; Human Pancreatic Cancer Panc-1, read-out: IC50 growth inhibition, agent used separately): 2.7 ± 0.3 ng/mL (≈ 3.16 nM) | paclitaxel ECMAX (sub-G1) (HeL023 cells): 33.42 ± 3.55 ng/mL | EC50 (HeL023 cells; [5]): 50.6 ± 5.3 ng/mL | IC50 ([3]; Homo sapiens, SKMES, paclitaxel 0.0001-0.05 μg/ml, alone, read-out: IC50 of paclitaxel, A3 antagonist none): 3.3 ng/mL (≈ 3.86 nM) | IC50 ([3]; Human Lung Carcinoma SKMES, read-out: IC50 growth inhibition, agent used separately): 2.6 ± 0.7 ng/mL (≈ 3.04 nM) | EC50 (PBMC blasts; [5]): 5.3 ± 0.6 ng/mL | IC50 ([4]; Human Colon Carcinoma HT29, read-out: IC50 growth inhibition, agent used separately): 1.12 ± 0.3 ng/mL (≈ 1.31 nM) | IC50 ([4]; Homo sapiens, HT29, paclitaxel 0.0001-0.05 μg/ml, alone, read-out: IC50 of paclitaxel, A3 antagonist none): 2.5 ng/mL (≈ 2.93 nM) | EC50 (NCTC2544 cells; [5]): 2.69 ± 0.28 ng/mL | paclitaxel ECMAX (sub-G1) (NCTC2544 cells): 2.69 ± 0.23 ng/mL | paclitaxel ECMAX (sub-G1, maximal apoptosis) (A375 cells; A375, DMSO (no antagonist)): 6.00 ± 0.63 ng/mL | EC50 (A375 cells; [5]): 16.6 ± 2 ng/mL

CC[C@]1(O)C[C@@H]2CN(CCc3c([nH]c4ccccc34)[C@@](C(=O)OC)(c3cc4c(cc3OC)N(C)[C@H]3[C@@](O)(C(N)=O)[C@H](O)[C@]5(CC)C=CCN6CC[C@]43[C@@H]65)C2)C1 [vindesine]
EC50 (Jurkat cells; [6]): 0.93 ± 0.08 nM | vindesine ECMAX (sub-G1) (HeL023 cells): 33.11 ± 4.02 nM | EC50 (HeL023 cells; [6]): 25.8 ± 3.25 nM | EC50 (PBMC blasts; [6]): 1.1 ± 0.9 nM | EC50 (NCTC2544 cells; [6]): 0.89 ± 0.08 nM | vindesine ECMAX (sub-G1) (NCTC2544 cells): 2.50 ± 0.27 nM | vindesine ECMAX (sub-G1, maximal apoptosis) (A375 cells; A375, DMSO (no antagonist)): 3.54 ± 0.42 nM | EC50 (A375 cells; [6]): 1.9 ± 0.2 nM
